In PubChem BioAssay (NCI):
Several values for one entry are separate records, joined by “and”; a condition that tells them apart may be missing. Equal entries are not always repeated.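 The compound was tested at five concentrations on cells cultured in 96-well plates, with a 48-hour exposure period. Abbreviation: GI50, concentration required for 50% inhibition of growth. TGI is the concentration that stops growth completely.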

Assays:
Test in all cases: growth of human tumour cells (NCI), 48 h
CAKI-1 renal = system: CAKI-1 renal
OVCAR-8 ovarian = system: OVCAR-8 ovarian
HCT-15 colon = system: HCT-15 colon
KM12 colon = system: KM12 colon
IGROV1 ovarian = system: IGROV1 ovarian
MOLT-4 leukemia = system: MOLT-4 leukemia
MCF7 breast = system: MCF7 breast
SW-620 colon = system: SW-620 colon
SN12C renal = system: SN12C renal
786-0 renal = system: 786-0 renal

Structure (SMILES) | GI50 (CAKI-1 renal) | TGI (CAKI-1 renal) | GI50 (OVCAR-8 ovarian) | TGI (OVCAR-8 ovarian) | GI50 (HCT-15 colon) | TGI (HCT-15 colon) | TGI (KM12 colon) | GI50 (IGROV1 ovarian) [µM] | TGI (IGROV1 ovarian) | TGI (MOLT-4 leukemia) | GI50 (MCF7 breast) [µM] | TGI (MCF7 breast) | TGI (SW-620 colon) | GI50 (SN12C renal) [µM] | TGI (SN12C renal) | GI50 (786-0 renal) | TGI (786-0 renal) | GI50 (KM12 colon) | GI50 (MOLT-4 leukemia) [µM] | GI50 (SW-620 colon) [µM]
CN(C)C(=S)SSC(=S)N(C)C | 15.9 µM and 61.5 µM and 21.1 µM | 31.4 µM and > 100 µM and 40.1 µM | 15.8 µM and 5.61 µM and 16.4 µM | 30.5 µM and 65.8 µM and 36.1 µM | 13.4 µM and 47.9 µM and 13.5 µM | 29.4 µM and > 100 µM and 31 µM | 24.7 µM and 11.1 µM and 45.4 µM | > 89.9 | > 100 µM and 29.3 µM | 75.1 µM and 37.5 µM and 23.8 µM | 0.478 | 22.7 µM and 39.3 µM and > 93.5 µM | 22.8 µM and 22.1 µM and > 56.6 µM | 14.7 | 28.7 µM and > 46.4 µM and 54.5 µM | 18.2 µM and 35.2 µM and 17.3 µM | 33.4 µM and > 80.9 µM and 36.5 µM | – | – | –
CC(C)CC(C/C=C1/CC(CO)(COC(=O)C(C)(C)C)OC1=O)CC(C)C (stereo not given) | 7.62 µM and 1.19 µM | 21.5 µM and 9.68 µM | – | 32.9 µM and 38.7 µM | – | 29.1 µM and 28.7 µM | 29.3 µM and 33.2 µM | – | 30.6 µM and 24.4 µM | 23.6 µM and > 41.6 µM | – | 34.2 µM and 40.3 µM | 19.4 µM and 22 µM | – | 22.2 µM | 1.72 µM and 7.83 µM | 17.7 µM and 26.3 µM | 13.7 µM and 14.8 µM | – | –
COc1ccc(-c2nccn2-c2ccc(OC)cc2)cc1 | 22.9 µM | > 69.5 µM | 23.9 µM | 67.5 µM | 23.1 µM | > 67.2 µM | 65.3 µM | 25.2 | > 82 µM | 89.4 µM | 24.4 | > 66.1 µM | > 100 µM | 20.8 | 50.3 µM | 21.9 µM | 60.6 µM | 17.9 µM | 27.4 | 25
CCCC/C(=C\C1=C(C)C(=O)C(OC)=C(OC)C1=O)C(=O)O | > 100 µM | > 100 µM | > 100 µM | > 100 µM | > 100 µM | > 100 µM | > 100 µM | > 100 | > 100 µM | > 100 µM | > 100 | > 100 µM | > 100 µM | > 100 | > 100 µM | > 100 µM | > 100 µM | > 100 µM | 6.54 | > 100
CCCC(=O)C1=C(O)C(Cc2c(O)c(C)c(O)c(C(=O)CCC)c2O)=C(O)C(C)(C)C1=O | – | > 50 µM | – | > 50 µM | – | > 50 µM | > 50 µM | – | > 50 µM | 36.3 µM | – | > 50 µM | > 50 µM | – | > 50 µM | – | > 50 µM | – | – | –
C#CCOc1cccc(Nc2ncnc3c(NC(=O)C=C)cccc23)c1 | 26.4 µM | > 100 µM | 21 µM | 70.1 µM | 12.6 µM | 81.8 µM | > 100 µM | 17.8 | 44.9 µM | > 100 µM | 21.2 | > 100 µM | > 100 µM | 16.5 | 62.6 µM | 19.1 µM | 52.7 µM | 20.3 µM | 19.4 | 25.8
ClCCN(CCCl)c1ccc(CNc2ccccc2)cc1 | 1.39 µM | > 100 µM | 6.34 µM | > 100 µM | 10.4 µM | > 100 µM | > 100 µM | 16 | > 100 µM | > 100 µM | 4.19 | > 100 µM | > 100 µM | 4 | > 100 µM | 5.11 µM | 36 µM | 24.7 µM | 2.81 | 10.6
CCN(CC)CCCCCCNc1cccc2cc(Br)cnc12 | 2.83 µM | 12.4 µM | 10.1 µM | 23.9 µM | 2.95 µM | 10.9 µM | 14.3 µM | 3.25 | 10.9 µM | 12.1 µM | 3.02 | 11.2 µM | 14.7 µM | 5.92 | 21 µM | 3.39 µM | 11.1 µM | 3.56 µM | 3.06 | 3.41
COC(c1ccc(C(C)(C)C)cc1)(c1ccc(C(C)(C)C)cc1)c1ccc(C(C)(C)C)cc1 | – | > 100 µM | – | > 100 µM | – | > 100 µM | > 100 µM | – | > 100 µM | > 100 µM | – | > 100 µM | > 100 µM | – | > 100 µM | – | > 100 µM | – | – | –
O=C(c1ccco1)c1c(C(F)(F)F)n([O-])c2ccc(C(F)(F)F)cc2[n+]1=O | 0.224 µM | 0.49 µM | 0.31 µM | 1.15 µM | 0.291 µM | 0.749 µM | 0.973 µM | 0.368 | 1.48 µM | 0.313 µM | 0.307 | 0.872 µM | 0.338 µM | 0.255 | 0.556 µM | 0.426 µM | 0.831 µM | 0.467 µM | 0.0912 | 0.159
CCCCCCCCCCNC(=O)CI | 1.56 µM | 3.55 µM | 1.55 µM | 4.52 µM | 1.5 µM | 3.31 µM | 4.29 µM | 0.12 | 0.288 µM | 1.07 µM | 1.97 | 4.59 µM | 3.65 µM | 1.21 | 2.8 µM | 1.8 µM | 3.37 µM | 2.13 µM | 0.298 | 1.77
Nc1cc(Br)c(-c2nnc(CCC(=O)c3nc4ccccc4[nH]3)o2)c(Br)c1 | 19.8 µM | > 100 µM | 21.6 µM | > 100 µM | > 100 µM | > 100 µM | 18 µM | 5.87 | 62.7 µM | > 100 µM | 3.06 | > 100 µM | > 100 µM | 29.5 | > 100 µM | 21 µM | 61.7 µM | 3.71 µM | 4.94 | 3.28
O=C1Nc2ccccc2/C1=C1\CCc2cc(O)ccc21 | 7.12 µM | > 25 µM | 10.4 µM | > 25 µM | 5.26 µM | > 25 µM | > 25 µM | 7.63 | > 25 µM | > 25 µM | 2.74 | > 25 µM | > 25 µM | 7.84 | > 25 µM | 19.2 µM | > 25 µM | 1.01 µM | 12.2 | 8.05
